# Assay results taken from US20060247420A1, “Immune cell recptor ligand and immune cell receptor” (priority 2002, published 2006).
# T1: Lymphocyte Effector cell Toxicity Activating Ligand (Letal) (human, UniProt Q8TD07 29-263)
# T1 construct: Expressed from the complete open reading frame by retroviral transduction on K562 and SKOV3 cells; also called ULBP4; RAET1E
# T1 sequence: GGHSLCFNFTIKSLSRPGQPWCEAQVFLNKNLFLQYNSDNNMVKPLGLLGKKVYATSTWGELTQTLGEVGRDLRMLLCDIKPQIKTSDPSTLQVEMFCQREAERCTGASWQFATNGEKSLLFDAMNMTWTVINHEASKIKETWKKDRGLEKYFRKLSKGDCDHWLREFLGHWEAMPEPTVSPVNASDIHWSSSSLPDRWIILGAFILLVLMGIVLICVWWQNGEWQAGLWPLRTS
# Assays:
# [1] = test system: Letal mRNA in A2008 ovarian carcinoma cell line; assay: Letal mRNA expression in treated A2008 cells, real-time quantitative RT-PCR (TaqMan); type: cell-based, human
# Experimental: Quantification of Letal by real-time quantitative RT-PCR. Letal expression was analyzed by TaqMan analysis as previously described (Garcia et al, FASEB J 15(10):1819-1821 (2001)). The Letal system consisted of the primers: Letal.F, 5′-[…]-3′ (SEQ ID NO:13); Letal.R, 5′-[…]-3′ (SEQ ID NO:14), and the probe Letal.P, 5′-(FAM)[…] (SEQ ID NO:15) (TAMRA)-3′. The cDNA load was normalized to human GAPDH with primers GAPDH F: 5′-[…]-3′ (SEQ ID NO:16) and GAPDH R: 5′[…]-3′ (SEQ ID NO:17) and the probe GAPDH.P: 5′(FAM) […] (TAMRA)-3′ (SEQ ID NO:18).
# Tissues, cell lines and purification of cells. Normal human tissues were obtained from the Cooperative Human Tissue Network (Zhang et al, N. Engl. J. Med. 348(3):203-213 (2003)). A2008 ovarian carcinoma cell line was treated for 24 h with serum-free medium (control) or serum-free medium containing either 10 U/ml interleukin (IL)-1β, 10 ng/ml tumor necrosis factor (TNF-α), 40 ng/ml interferon (IFNγ), 0.5 μg/ml Lypopolyssaccaride (LPS), or 10 ng/ml TNF-α plus 40 ng/ml IFN-γ. 10 ng/ml PMA was kept for 4 hs and retinoic acid for 24, 48, and 72 hs. All the cytokines were from Peprotech (Rocky Hill, N.J.), except retinoic acid (Sigma, St Louis, Mo.). Additionally, cells were cultured in media without glucose for 48 hs or under hypoxia (1.5% O2) for 16 hs. Fresh peripheral blood lymphocytes were obtained by leukapheresis and elutriation. […]
# [2] = test system: NKG2D on peripheral CD8^+ T-cells; assay: NKG2D expression on CD8+ lymphocytes after co-culture with K32 aAPCs, flow cytometry; type: cell-based, human; settings: peripheral CD8^+ T-cells co-cultured 4 days with K32 aAPCs; versus mock-transduced K32
# Description: (§1) CD8^+ lymphocyte stimulation and cytokine release. To analyze the effects of Letal on the T-cell proliferation and production of cytokines, a previously described artificial antigen-presenting cell (aAPC) model was used (Maus et al, Nat. Biotechnol. 20(2):143-148 (2002)). Briefly, the system is based on the stable expression of the human low-affinity Fcγ receptor, CD32, on K562 cells (K32 cell line). K32 cell-based aAPCs were additionally transduced with Letal or with the empty vector as described above, irradiated with 100Gy, and washed twice with RPMI medium. Letal^+-K32 cells or mock transductants were loaded, when indicated, with anti-CD3 (OKT3), or anti-CD3 plus anti-CD28 (mAbs; 9.3) monoclonal antibodies at 0.5 μg/ml for 10 min at room temperature. Loaded &APCs were mixed with CD8^+ T-cells at a 1:2 ratio and the T-cell concentration was maintained at 0.5×10^6 cells/ml throughout the culture. Cultures were pulsed with 1 μCi of [^3H] thymidine from day 2 to day 5 and incorporated radioactivity was determined using a 1450 Microbeta scintillation counter (Wallac, Turku, Finland). The amounts of secreted IL-2 and IFNγ were determined by commercial ELISA, following the manufacturer's instructions (R & D Systems). Flow cytometry was performed with a FACScalibur (BD Biosciences, San Jose, Calif.). […]
# [3] = test system: peripheral CD8^+ T-cells; assay: CD8+ lymphocyte proliferation/expansion with K32 aAPCs ([3H] thymidine); type: cell-based, human; settings: day 5; three independent experiments
# Description: as §1
# [4] = test system: glucose transporter Glut-1 in peripheral CD8^+ T-cells; assay: Glut-1 expression in stimulated CD8+ T-cells, flow cytometry; type: cell-based, human; settings: 20 hr stimulation
# Description: CD8^+ lymphocyte stimulation, cytokine release and glucose metabolism analysis. To analyze the effects of Letal on the T-cell proliferation and production of cytokines, a previously described artificial antigen-presenting cell (aAPC) model was used (Maus et al, Nat. Biotechnol. 20:143-148 (2002)). Briefly, the system is based on the stable expression of the human low-affinity Fcγ receptor, CD32, on K562 cells (K32 cell line). K32 cell-based aAPCs were additionally transduced with Letal or with the empty vector as described above, irradiated with 100Gy, and washed twice with RPMI medium. […] Cultures were pulsed with 1 μCi of [^3H] thymidine from day 2 to day 5 and incorporated radioactivity was determined using a 1450 Microbeta scintillation counter (Wallac, Turku, Finland). The amounts of secreted IL-2 and IFN-γ were determined by commercial ELISA, following the manufacturer's instructions (R & D Systems). […]
# Letal signaling increases glucose transporter expression and glucose uptake during T-cell activation. […] To test whether Letal may have a similar effect during T-cell activation, peripheral CD8^+ T-cells were stimulated for 20 hr with anti-CD3, anti-CD3/anti-CD28, anti-CD3/Letal, or Letal alone and the expression of the glucose transporter Glut-1 was analyzed by flow cytometry. […]
# [5] = test system: peripheral CD8^+ T-cells; assay: Glucose uptake with [3H]-2-deoxyglucose in stimulated CD8+ T-cells; type: cell-based, human; settings: 20 hr stimulation
# Description: as §1, with “stimulation, cytokine release” for “stimulation”, “glucose metabolism analysis.” for “cytokine release.”, “20:143-148” for “20(2):143-148”, “aAPCs” for “&APCs”, “IFN-γ” for “IFNγ”, “Systems).” for “Systems). Flow cytometry was performed with a FACScalibur (BD Biosciences, San Jose, Calif.).”
# Glucose uptake rates were next measured with [^3H]-2-deoxyglucose in cells stimulated as described above. […]
# [6] = test system: peripheral CD8^+ T-cells; assay: Cisplatin-induced apoptosis of pre-stimulated CD8+ lymphocytes, annexin-V; type: cell-based, human; settings: pre-stimulated 3 days; 50 μM cisplatin for 17 hr
# Experimental: (§2) Apoptosis assay. The percentage of apoptotic cells was determined after 17 h incubation with 50 μM cisplatin or 18 hs exposure to 0.1 μg/ml anti-CD95 mAb (EOS9.1; Pharmingen) by using the TACS annexin-V apoptosis detection kit, according to the manufacturer's instructions (R & D Systems). Fas expression was determined by flow cytometry by using EOS9.1 as a primary Ab and a PE-labeled anti-mouse IgM (R6-60.2; Pharmingen) as a second Ab.
# Cytotoxic chemotherapy can, however, deplete tumor-specific effector T-cells (Lee et al, Nat. Med. 5:677-685 (1999)). Because the glycolytic pathway is implicated in lymphocyte survival (Plas et al, Nat. Immunol. 3:515-521 (2002)), a determination was made as to whether Letal could protect T-cells from early apoptotic death induced by genotoxic drugs.
# [7] = test system: Fas on peripheral CD8^+ T-cells; assay: Fas expression on stimulated CD8+ T-cells, flow cytometry; type: cell-based, human; settings: 4 days stimulation; compared to CD3/CD28 costimulated T-cells
# Experimental: as §2
# Letal engagement protects CD8^+ T-cells from FasL-induced apoptosis. […] Because ovarian carcinomas express FasL and other lymphocyte-depleting death ligands (Rabinowich et al, J. Clin. Invest. 101:2579-2588 (1998)), the prevalence of FasL expression and its impact on TILs was determined in 42 stage III ovarian carcinoma specimens. Strong FasL immunoreactivity was detected in tumor cells in areas of selected specimens (FIG. 10A), as well as in a proportion of stromal leukocytes. To test whether Letal promotes the generation of activated T-cell subpopulations that are able to resist the pro-apoptotic tumor microenvironment, peripheral CD8^+ T-cells were stimulated for 4 days with CD3/Letal, CD3/CD28, or anti-CD3 alone, and expression of Fas was measured by flow cytometry. […]
# [8] = biological target: T1, Lymphocyte Effector cell Toxicity …; assay: flow cytometry, 3 µg/ml NKG2D/Fc on Letal-transduced K562 and SKOV3 cells, detected with anti-human IgG mAb
# Description: Constructs and generation of antibodies. SKOV3 and K562 cells were transduced using retroviral vector MIGR1, generously provided by Warren Pear (University of Pennsylvania). Letal or mock transductants expressing equivalent levels of the green fluorescent protein were sorted and cultured by standard procedures. […] Anti-human IgG mAb (G18-145; Pharmingen, San Diego, Calif.) was used to detect the chimerical molecule.
# Letal is a ligand of NKG2D expressed in a variety of normal tissues. […] Expression of the Letal protein was confirmed on transduced cells, but not on mocked transductants, by flow cytometry using serum of Letal-immunized mice (FIG. 1D). […] To evaluate the binding of NKG2D to transduced Letal, a recombinant soluble NKG2D-Fc fusion protein was used, containing the ectodomain of the immunoreceptor (Phe78 through Val216). […] Treatment with phospholipase C decreased binding of sNKG2D to Letal⁺ K562 cells, although binding was higher than to control cells.
molecule,measurement,setting,value
CC1=C(/C=C/C(C)=C/C=C/C(C)=C/C(=O)O)C(C)(C)CCC1 [retinoic acid],decrease of Letal mRNA expression,"[1]; maximum, after 72 hr stimulation",6 fold
anti-CD3: anti-CD3 (OKT3) monoclonal antibody loaded on Letal^− K32 aAPCs [reference compound],increase of NKG2D expression,[2],same result than CD3/Letal stimulation
same,fewer CD8^+ cells with CD3 stimulation in the absence of Letal,[3],29%
same,cells with altered Glut-1 expression,[4],11%
same,glucose uptake rate,[5],little to no effect
same,apoptosis after cisplatin,[6],higher percentage of apoptotic cells
same,Fas expression,[7],markedly higher
TNF-α,increase of basal Letal mRNA levels,"[1]; TNF-α 10 ng/ml, 24 h",3 fold
"recombinant human NKG2D/Fc chimera (R & D Systems) (Fc fusion, UniProt P26718 78-216, looked up, range 78-216; Bought reagent; also called NKG2D-Fc protein; recombinant soluble NKG2D-Fc fusion protein; Fc part of the bought chimera not given, detected with anti-human IgG mAb) FLNSLFNQEVQIPLTESYCGPCPKNWICYKNNCYQFFDESKNWYESQASCMSQNASLLKVYSKEDQDLLKLVKSYHWMGLVHIPTNGSWQWEDGSILSPNLLTIIEMQKGDCALYASSFKGYIENCSTPNTYICMQRTV",binding result,[8],binds
